# Test results reported in patent US9884832B2 (priority 2011, dated 2018).
# Target: AM2 S31 (wild-type serine at position 31 in the M2 protein), influenza virus A/Udorn/72 (Influenza A virus, UniProt P0DOF5)
# Experiment: cell-based
# Settings: 100 uM; Xenopus oocytes; activity range class; read-out: S31 OOcyte Inhibition at 100 uM (%)
# AM2 S31 (wild-type serine at position 31 in the M2 protein), influenza virus A/Udorn/72, sequence (P0DOF5 whole entry, looked up): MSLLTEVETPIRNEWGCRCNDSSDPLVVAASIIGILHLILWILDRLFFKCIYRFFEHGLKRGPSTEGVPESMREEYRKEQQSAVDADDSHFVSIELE
row,Compound,inhibition at 100 µM [%]
1,"CC(NC12CC3CC(CC(C3)C1)C2)c1ccc(C#N)s1 (stereo not drawn) [Example 92a, 5-(1-(adamantan-1-ylamino)ethyl)thiophene-2-carbonitrile]",31 to 95
2,"Nc1ncc(CNC23CC4CC(CC(C4)C2)C3)s1 [Example 93a, 5-((adamantan-1-ylamino)methyl)thiazol-2-amine]",31 to 95
3,"Brc1cc(CNC23CC4CC(CC(C4)C2)C3)on1 [Example 94a, N-((3-bromoisoxazol-5-yl)methyl)adamantan-1-amine]",0 to 30
4,"Cc1cc(CNC23CC4CC(CC(C4)C2)C3)no1 [Example 95a, N-((5-methylisoxazol-3-yl)methyl)adamantan-1-amine]",31 to 95
5,"Cc1nc(CNC23CC4CC(CC(C4)C2)C3)no1 [Example 96a, N-((5-methyl-1,2,4-oxadiazol-3-yl)methyl)adamantan-1-amine]",31 to 95
6,"Cc1ccc(C(C)NC23CC4CC(CC(C4)C2)C3)s1 (stereo not drawn) [Example 97a, N-(1-(5-methylthiophen-2-yl)ethyl)adamantan-1-amine]",0 to 30
7,"CCc1ccc(CNC23CC4CC(CC(C4)C2)C3)s1 [Example 98a, N-((5-ethylthiophen-2-yl)methyl)adamantan-1-amine]",31 to 95
8,"Cc1nc(CNC23CC4CC(CC(C4)C2)C3)c[nH]1 [Example 99a, N-((2-methyl-1H-imidazol-4-yl)methyl)adamantan-1-amine]",0 to 30
9,"O=[N+]([O-])c1ccc(CNC23CC4CC(CC(C4)C2)C3)s1 [Example 100a, N-((5-nitrothiophen-2-yl)methyl)adamantan-1-amine]",31 to 95
10,"CC(C)(C)c1cc(CNC23CC4CC(CC(C4)C2)C3)[nH]n1 [Example 101a, N-((3-(tert-butyl)-1H-pyrazol-5-yl)methyl)adamantan-1-amine]",0 to 30
11,"CC(C)c1nc(CNC23CC4CC(CC(C4)C2)C3)no1 [Example 102a, N-((5-isopropyl-1,2,4-oxadiazol-3-yl)methyl)adamantan-1-amine]",0 to 30
12,"CC(C)(C)c1nc(CNC23CC4CC(CC(C4)C2)C3)no1 [Example 103a, N-((5-(tert-butyl)-1,2,4-oxadiazol-3-yl)methyl)adamantan-1-amine]",0 to 30
13,"Brc1ncc(CNC23CC4CC(CC(C4)C2)C3)s1 [Example 104a, N-((2-bromothiazol-5-yl)methyl)adamantan-1-amine]",0 to 30
14,"Brc1csc(CNC23CC4CC(CC(C4)C2)C3)c1 [Example 105a, N-((4-bromothiophen-2-yl)methyl)adamantan-1-amine]",31 to 95
15,"c1c(CNC23CC4CC(CC(C4)C2)C3)noc1CN1CCOCC1 [Example 106a, N-((5-(morpholinomethyl)isoxazol-3-yl)methyl)adamantan-1-amine]",0 to 30
16,"c1c(CNC23CC4CC(CC(C4)C2)C3)noc1C1CC1 [Example 107a, N-((5-cyclopropylisoxazol-3-yl)methyl)adamantan-1-amine]",0 to 30
17,"c1cc(C2CC2)sc1CNC12CC3CC(CC(C3)C1)C2 [Example 108a, N-((5-cyclopropylthiophen-2-yl)methyl)adamantan-1-amine]",0 to 30
18,"C1CCC(c2nc(CNC34CC5CC(CC(C5)C3)C4)no2)C1 [Example 109a, N-((5-cyclopentyl-1,2,4-oxadiazol-3-yl)methyl)adamantan-1-amine]",0 to 30
19,"COc1ccc(-c2cc(CNC34CC5CC(CC(C5)C3)C4)no2)cc1 [Example 110a, N-((5-(4-methoxyphenyl)isoxazol-3-yl)methyl)adamantan-1-amine]",0 to 30
20,"CSc1ccc(-c2ccc(CNC34CC5CC(CC(C5)C3)C4)s2)cc1 [Example 112a, N-((5-(4-(methylthio)phenyl)thiophen-2-yl)methyl)adamantan-1-amine]",0 to 30
21,"COc1ccc(-c2ccc(CNC34CC5CC(CC(C5)C3)C4)s2)cc1 [Example 113a, N-((5-(4-methoxyphenyl)thiophen-2-yl)methyl)adamantan-1-amine]",0 to 30
22,"c1ccc(-c2nc(CNC34CC5CC(CC(C5)C3)C4)c[nH]2)cc1 [Example 114a, N-((2-phenyl-1H-imidazol-4-yl)methyl)adamantan-1-amine]",31 to 95
23,"c1ccc(-c2nnc(CNC34CC5CC(CC(C5)C3)C4)o2)cc1 [Example 115a, N-((5-phenyl-1,3,4-oxadiazol-2-yl)methyl)adamantan-1-amine]",0 to 30
24,"c1ccc(-c2cc(CNC34CC5CC(CC(C5)C3)C4)no2)cc1 [Example 116a, N-((5-phenylisoxazol-3-yl)methyl)adamantan-1-amine]",0 to 30
25,"Brc1ccc(-c2cc(CNC34CC5CC(CC(C5)C3)C4)on2)cc1 [Example 117a, N-((3-(4-bromophenyl)isoxazol-5-yl)methyl)adamantan-1-amine]",0 to 30

# Same assay, conditions: Table 1; 100 uM; Xenopus oocytes, pH 5.5, -20 mV; read-out: S31 OOcyte Inhibition at 100 uM (%)
row,Compound,inhibition at 100 µM [%]
1,"c1ccc2[nH]c(CNC34CC5CC(CC(C5)C3)C4)nc2c1 [Example 92, Adamantan-1-yl-(1H-benzoimidazol-2-ylmethyl)-amine]",0 to 30
2,"c1ccc2[nH]c(CNC34CC5CC(CC(C5)C3)C4)cc2c1 [Example 93, Adamantan-1-yl-(1H-indol-2-ylmethyl)-amine]",0 to 30
3,"c1nc2ccc(CNC34CC5CC(CC(C5)C3)C4)cc2[nH]1 [Example 94, Adamantan-1-yl-(3H-benzoimidazol-5-ylmethyl)-amine]",0 to 30
4,"c1cc2cn[nH]c2cc1CNC12CC3CC(CC(C3)C1)C2 [Example 95, Adamantan-1-yl-(1H-indazol-6-ylmethyl)-amine]",31 to 95
5,"c1cc(CNC23CC4CC(CC(C4)C2)C3)c2cc[nH]c2c1 [Example 96, Adamantan-1-yl-(1H-indol-4-ylmethyl)-amine]",31 to 95
6,"Oc1c(CNC23CC4CC(CC(C4)C2)C3)ccc2ccccc12 [Example 97, 2-(Adamantan-1-ylaminomethyl)-naphthalen-1-ol]",31 to 95
7,"c1ccc2nc(CNC34CC5CC(CC(C5)C3)C4)ccc2c1 [Example 98, Adamantan-1-yl-quinolin-2-ylmethyl-amine]",31 to 95
8,"Oc1ccc(CNC2C3CC4CC(C3)CC2C4)cc1 (stereo not drawn) [Example 99, 4-(Adamantan-2-ylaminomethyl)-phenol]",31 to 95
9,"Oc1ccc(CNC2C3CC4CC(C3)CC2C4)c(O)c1 (stereo not drawn) [Example 100, 4-(Adamantan-2-ylaminomethyl)-benzene-1,3-diol]",31 to 95
10,"Oc1ccc(CNC2C3CC4CC(C3)CC2C4)cc1O (stereo not drawn) [Example 101, 4-(Adamantan-2-ylaminomethyl)-benzene-1,2-diol]",31 to 95
11,"CC(NC1C2CC3CC(C2)CC1C3)c1ccc(O)cc1O (stereo not drawn) [Example 102, 4-[1-(Adamantan-2-ylamino)-ethyl]-benzene-1,3-diol]",31 to 95
12,"CSc1ccc(CNC2C3CC4CC(C3)CC2C4)cc1 (stereo not drawn) [Example 103, Adamantan-2-yl-(4-methylsulfanyl-benzyl)-amine]",0 to 30
13,"OC1CCN(C2C3CC4CC(C3)CC2C4)CC1 (stereo not drawn) [Example 104, 1-Adamantan-2-yl-piperidin-4-ol]",0 to 30
14,"c1c(CNC2C3CC4CC(C3)CC2C4)nc2n1CCS2 (stereo not drawn) [Example 105, Adamantan-2-yl-(2,3-dihydro-imidazo[2,1-b]thiazol-6-ylmethyl)-amine]",31 to 95
15,"Cc1nn2cc(CNC3C4CC5CC(C4)CC3C5)nc2s1 (stereo not drawn) [Example 106, Adamantan-2-yl-(2-methyl-imidazo[2,1-b][1,3,4]thiadiazol-6-ylmethyl)-amine]",0 to 30
16,"c1cn2cc(CNC3C4CC5CC(C4)CC3C5)nc2s1 (stereo not drawn) [Example 107, Adamantan-2-yl-imidazo[2,1-b]thiazol-6-ylmethyl-amine]",31 to 95
17,"CC1(C)CCC(NCc2ccc(O)cc2O)CC1 [Example 108, 4-[(4,4-Dimethyl-cyclohexylamino)-methyl]-benzene-1,3-diol]",31 to 95
18,"CC(C)(C)C1CCC(NCc2ccc(O)cc2O)CC1 (stereo not drawn) [Example 109, 4-[(4-tert-Butyl-cyclohexylamino)-methyl]-benzene-1,3-diol]",31 to 95
19,"Oc1ccc(CNC23CC4CCC(CC(C4)C2)C3)c(O)c1 [Example 110, 4-(Tricyclo[4.3.1.13,8]undec-1-ylaminomethyl)-benzene-1,3-diol]",31 to 95
20,"Oc1ccc(CNC23CC4CC(CC2C4)C3)c(O)c1 [Example 111, 4-[(Hexahydro-2,5-methano-pentalen-3a-ylamino)-methyl]-benzene-1,3-diol]",31 to 95
21,"CC(C)(C)CC(C)(C)NCc1ccc(O)cc1O [Example 112, 4-[(1,1,3,3-Tetramethyl-butylamino)-methyl]-benzene-1,3-diol]",31 to 95
22,"C[Si](C)(C)CCCNCc1ccc(O)cc1O [Example 113, 4-[(3-Trimethylsilanyl-propylamino)-methyl]-benzene-1,3-diol]",31 to 95
23,"CC1(C)C2CCC(CNCc3ccc(O)cc3O)C1C2 (stereo not drawn) [Example 114, 4-{[(6,6-Dimethyl-bicyclo[3.1.1]hept-2-ylmethyl)-amino]methyl}-benzene-1,3-diol]",31 to 95
24,"Oc1ccc(CN2CCC3(CCCCC3)CC2)c(O)c1 [Example 115, 4-(3-Aza-spiro[5.5]undec-3-ylmethyl)-benzene-1,3-diol]",31 to 95
25,"Oc1ccc(CN2CC3CC4CC(C3)CC2C4)c(O)c1 [Example 116, 4-(4-Aza-tricyclo[4.3.1.13,8]undec-4-ylmethyl)-benzene-1,3-diol]",31 to 95

# Same assay, conditions: Table 3; 100 uM; Xenopus oocytes, pH 5.5, -20 mV; read-out: S31 OOcyte Inhibition at 100 uM (%)
row,Compound,inhibition at 100 µM [%]
1,"CSc1ccc(-c2cc(CNC34CC5CCC(CC(C5)C3)C4)no2)cc1 [Example 91b, (1S,3R,8S)—N-((5-(4-(methylthio)phenyl)isoxazol-3-yl)methyl)tricyclo[4.3.1.13,8]undecan-1-amine]",0 to 30
